Test results from publication PMC13083723 (Patterns, 2026).
“And” between values parts separate entries of the source, which are not always exact repeats. Equal entries are not always repeated. Structures can show the parent of a compound that is named as a salt. Where two headings read alike, the source gives them in different places.

Key:
Vero-E6 cells = assay: cells; assay type: cell-based
SARS-CoV-2 [1] = conditions: cited from earlier work; for CaCo2 CPE inhibition %: Caco-2, 20 µM; for CaCo2 CPE assay (active): Caco-2
SARS-CoV-2 [2] = conditions: cited from earlier work; for Vero-E6 CPE inhibition %: 10 µM
A549-ACE2 cells = assay: cells; assay type: cell-based; conditions: A549-ACE2, 24 h, read-out: PLD_Effect(%) A549-ACE2
[3] = cited from earlier work
[4] = Chlorocebus sabaeus, Vero C1008, 24 h, read-out: PLD_Effect(%) VERO-E6
[5] = Chlorocebus sabaeus, Vero C1008, 24 h; read-out: PLD Effect in % 5 µM
[6] = Chlorocebus sabaeus, Vero C1008, 24 h; read-out: PLD Effect in % 10 µM
[7] = Chlorocebus sabaeus, Vero C1008, 24 h; read-out: PLD Effect in % 20 µM
[8] = Chlorocebus sabaeus, Vero C1008, read-out: PLD EC50 µM
[9] = Chlorocebus sabaeus, Vero C1008, 24 h, read-out: PLD Effect in % 5 µM
[10] = Chlorocebus sabaeus, Vero C1008, 24 h, read-out: PLD Effect in % 10 µM
[11] = Chlorocebus sabaeus, Vero C1008, 24 h, read-out: PLD Effect in % 20 µM

Row | SMILES | CaCo2 CPE inhibition % (SARS-CoV-2 [1]) | Vero-E6 CPE inhibition % (SARS-CoV-2 [2]) | activation at 5 µM (Vero-E6 cells; [5]) | activation at 10 µM (Vero-E6 cells; [6]) | activation at 20 µM (Vero-E6 cells; [7]) | EC50 (Vero-E6 cells; [8]) | other results
1 | OCCNC1CCCc2c1[nH]c1ccc(-c3ccccc3)cc21 (stereo not drawn) [casin, reference compound] | 71.19% | – | – | – | – | – | PLD Effect in % 5 µM (Vero-E6 cells; 5 µM): 116.35%; PLD Effect in % 10 µM (Vero-E6 cells; 10 µM): 193.97%; PLD Effect in % 20 µM (Vero-E6 cells; 20 µM): 134.63%; EC50 (Vero-E6 cells; read-out: PLD EC50): 3.31 µM
2 | Cc1cccc(C)c1NC(=O)CN1CCN(CCCC(c2ccc(F)cc2)c2ccc(F)cc2)CC1 [lidoflazine, reference compound] | – | 0.5% | 65.3% | 80.2% | 129% | 5.51 µM | activation at 10 µM (A549-ACE2 cells): 90.9%; activation at 10 µM (Vero-E6 cells; [4]): 52.6%
3 | CCN(CC)CCCCNc1ncc2cc(-c3c(Cl)cccc3Cl)c(NC(=O)NC(C)(C)C)nc2n1 [PD-161570, reference compound] | 108.10% | 12.35% | – | – | – | – | EC50 (SARS-CoV-2 [2]; read-out: Vero-E6 EC50): 145000 nM; PLD Effect in % 5 µM (Vero-E6 cells; 5 µM): 163.59%; PLD Effect in % 10 µM (Vero-E6 cells; 10 µM): 118.17%; PLD Effect in % 20 µM (Vero-E6 cells; 20 µM): 36.18%; EC50 (Vero-E6 cells; read-out: PLD EC50): 0.63 µM
4 | COC(=O)C1=C(C)NC(C)=C(C(=O)NCCCN2CCC(c3ccccc3)(c3ccccc3)CC2)C1c1ccc([N+](=O)[O-])cc1 (stereo not drawn) [SNAP-5089, reference compound] | 72.63% | -0.12% | 66.5% | 78.4% | 24.9% | 2.01 µM | –
5 | CC(C)c1ccc2c(c1)CC[C@H]1[C@](C)(CN)CCC[C@]21C [Lylamine, reference compound] | 76.43% | -0.36% | – | – | – | – | PLD Effect in % 5 µM (Vero-E6 cells; 5 µM): 104.48%; PLD Effect in % 10 µM (Vero-E6 cells; 10 µM): 133.55%; PLD Effect in % 20 µM (Vero-E6 cells; 20 µM): -41.01%
6 | CN1CCC(Nc2ncc3ncnc(Nc4ccc(F)c(Cl)c4)c3n2)CC1 [BiBX-1382, reference compound] | – | 0.28% | 85.8% | 75.5% | -0.64% | 0.61 µM | –
7 | Cc1ccc(C(=O)N(CCCN)[C@@H](c2oc3cc(Cl)ccc3c(=O)c2Cc2ccccc2)C(C)C)cc1 [SB-743921, reference compound] | 78.89% | -0.36% | 172% | 224% | -43.6% | 2.49 µM | –
8 | OC(c1cc(C(F)(F)F)nc2c(C(F)(F)F)cccc12)C1CCCCN1 (stereo not drawn) [mefloquine hydrochloride, reference compound] | – | -0.32% | – | – | – | 1.48 µM | activation at 5 µM (Vero-E6 cells; [9]): 102%; activation at 10 µM (Vero-E6 cells; [10]): 188%; activation at 20 µM (Vero-E6 cells; [11]): 174%
9 | Cc1ccc(NC(=O)c2ccc(CN3CCN(C)CC3)cc2)cc1Nc1nc(-c2cccnc2)cs1 [masitinib (AB1010), masitinib, reference compound] | 107.90% | – | 43.1% | 45.2% | 53.3% | – | PLD induction assay (active) (Vero-E6 cells): active; EC50 (Vero-E6 cells; Chlorocebus sabaeus, Vero C1008; read-out: PLD EC50): 2.57 µM; CaCo2 CPE assay (active) (SARS-CoV-2 [1]): active
10 | O=C(CCCN1CCC2(CC1)C(=O)N(Cc1cccc(F)c1)CN2c1ccccc1)c1ccc(F)cc1 [3'-fluorobenzylspiperone, reference compound] | 102.38 | – | – | – | – | 10.3 µM | PLD induction assay (active) (Vero-E6 cells): active; activation at 5 µM (Vero-E6 cells; [9]): 61.8%; activation at 10 µM (Vero-E6 cells; [10]): 41.3%; activation at 20 µM (Vero-E6 cells; [11]): 8.92%; CaCo2 CPE assay (active) (SARS-CoV-2 [1]): active
11 | COc1cc(C(=O)NC2CCN(C)CC2)c(F)cc1Nc1ncc2c(n1)N(C1CCCC1)CC(F)(F)C(=O)N2C [TAK-960, reference compound] | 91.64% | 2.67% | – | – | – | – | –
12 | COc1cc2c(NC3CCN(C(C)C)CC3)nc(C3CCCCC3)nc2cc1OCCCN1CCCC1 [UNC0638] | – | – | – | – | – | – | activation at 10 µM (A549-ACE2 cells): 112%; activation at 10 µM (Vero-E6 cells; [4]): 60.7%; pchembl_value (type IC50), Histone-lysine N-methyltransferase, H3 lysine-9 specific 3 [3]: 7.26 and 7.82 and 7.92; pchembl_value (type IC50), Histone-lysine N-methyltransferase, H3 lysine-9 specific 5 [3]: 7.72; pchembl_value (type Ki), Histone-lysine N-methyltransferase, H3 lysine-9 specific 3 [3]: 8.43 and 7.75; IC50 ([3]; read-out: IC50 (value), Histone-lysine N-methyltransferase, H3 lysine-9 specific 3): 55 nM and 15 nM; IC50 ([3]; read-out: IC50 (value), Histone-lysine N-methyltransferase, H3 lysine-9 specific 5): 19 nM; IC50 ([3]; read-out: IC50 (value), Lysine-specific histone demethylase 1): 180 nM; Ki ([3]; read-out: Ki (value), Histone-lysine N-methyltransferase, H3 lysine-9 specific 3): 3.7 nM; pchembl_value (type IC50), Lysine-specific histone demethylase 1 ([3]; value is the negative log10 of mol/L): 6.75
13 | CCN(CC)CCCC(C)Nc1c2ccc(Cl)cc2nc2ccc(OC)cc12 (stereo not drawn) [quinacrine hydrochloride, reference compound] | – | -0.23% | 145% | 141% | -13.2% | 1.55 µM | –
14 | N[C@H]1CC[C@H](N[C@@H]2C[C@H]2c2ccccc2)CC1 [ORY-1001 (RG-6016) 2HCl] | – | – | – | – | – | – | activation at 10 µM (A549-ACE2 cells): 98.4%; activation at 10 µM (Vero-E6 cells; [4]): 65.7%; Ki [3]: 50 nM; pchembl_value [3]: 9.85 and 7.30 and 7.48
15 | CC(C)c1cnn2c(NCc3ccccc3)cc(NCCCCCCN)nc12 [BS-181] | – | – | – | – | – | – | activation at 10 µM (A549-ACE2 cells): 63.8%; activation at 10 µM (Vero-E6 cells; [4]): 53.6%; IC50 ([3]; read-out: IC50 (value)): 21 nM
